Measurements as given in patent publication US11807625B2, “Capsid inhibitors for the prevention of HIV” (Gilead Sciences, Inc., priority 2019, dated 2023).

Assay: PK of compound of Formula (Ia) after single subcutaneous dose of solution formulations in beagle dogs
Format: in vivo
Details: male, beagle, dog, plasma, sc, 12 mg/kg, beagle dogs, SC 12 mg/kg
Description: Formulations containing the compound of Formula (Ia), or a pharmaceutically acceptable salt thereof, were prepared as solutions and optionally administered subcutaneously or intramuscularly to rats, rabbits, and/or dogs.
(§1) A solution of about 400 mg/mL of the compound of Formula (Ia) having 17.00 w/w % water, 36.40 w/w % PEG 300, 35.20 w/w % of a sodium salt of a compound of Formula (Ia), 5.00 w/w % ethanol, and 6.40 w/w % poloxamer 188 was prepared. The solution was administered subcutaneously to male beagle dogs at a dose level of about 12 mg/kg and male Wistar Han rats at a dose level of about 50 mg/kg. The pharmacokinetic profiles were determined, and the results for dogs are summarized in Table and Table, while the results for rats are summarized in Table and Table below.
as §1, with “500” for “400”, “14.06” for “17.00”, “30.12” for “36.40”
A solution of about 300 mg/mL of the compound of Formula (Ia) having 23.33 w/w % water, 48.99 w/w % PEG 300, 26.47 w/w % of a sodium salt of a compound of Formula (Ia), and 1.21 w/w % poloxamer 188 was prepared. The solution was administered subcutaneously to male beagle dogs at a dose level of about 6 mg/kg and male Wistar Han rats at a dose level of about 50 mg/kg. The pharmacokinetic profiles were determined, and the results for dogs are summarized in Table and Table, while the results for rats are summarized in Table and Table below.
as §1, with “18.80” for “17.00”, “40.25” for “36.40”, “34.38” for “35.20”, “1.57” for “6.40”
as §1, with “500” for “400”, “16.29” for “17.00”, “34.88” for “36.40”, “41.92” for “35.20”, “1.91” for “6.40”
as §1, with “20.90” for “17.00”, “44.72” for “36.40”, “and 34.38” for “35.20”, “(Ia)” for “(Ia), 5.00 w/w % ethanol, and 6.40 w/w % poloxamer 188”
A solution of about 400 mg/mL of the compound of Formula (Ia) having 19.90 w/w % water, 42.59 w/w % PEG 300, 34.38 w/w % of a sodium salt of a compound of Formula (Ia), and 3.13 w/w % poloxamer 188 was prepared. The solution was administered subcutaneously to male beagle dogs at a dose level of about 12 mg/kg and male Wistar Han rats at a dose level of about 50 mg/kg. […]

[1] = 400 mg/mL solution W (5.00% ethanol, 1.57% poloxamer 188), Mean n = 3
[2] = 400 mg/mL solution W (5.00% ethanol, 1.57% poloxamer 188), animals #1-#3
[3] = 400 mg/mL solution Y (water, PEG 300), Mean n = 3
[4] = 400 mg/mL solution Y (water, PEG 300), animals #1-#3
[5] = 400 mg/mL solution Z (3.13% poloxamer 188), animals #1-#3
[6] = 400 mg/mL solution Z (3.13% poloxamer 188), Mean n = 3
[7] = 500 mg/mL solution X (5.00% ethanol, 1.91% poloxamer 188), Mean n = 3
[8] = 500 mg/mL solution X (5.00% ethanol, 1.91% poloxamer 188), animals #1-#3

## CC(C)(C#Cc1ccc(-c2ccc(Cl)c3c(NS(C)(=O)=O)nn(CC(F)(F)F)c23)c([C@H](Cc2cc(F)cc(F)c2)NC(=O)Cn2nc(C(F)(F)F)c3c2C(F)(F)[C@@H]2C[C@H]32)n1)S(C)(=O)=O [compound of Formula (Ia)]
[1]
  concentration at 96 h: 43.5 nM
  concentration at 168 h: 40.3 nM
  concentration at 336 h: 133 nM
  concentration at 504 h: 121 nM
  concentration at 672 h: 145 nM
  concentration at 840 h: 82.4 nM
  concentration at 1008 h: 71.7 nM
  concentration at 1344 h: 80.7 nM
  concentration at 1680 h: 34.9 nM
  concentration at 2016 h: 35.3 nM
  concentration at 2352 h: 21.9 nM
  concentration at 2688 h: 13.3 nM
  concentration at 3024 h: 11.4 nM
  concentration at 3360 h: 7.4 nM
  concentration at 3696 h: 4.7 nM
[2]
  concentration at 1008 h: 80.7 nM
  concentration at 1344 h: 72.3 nM
  concentration at 1680 h: 28.8 nM
  concentration at 2016 h: 25.8 nM
  concentration at 2352 h: 16.8 nM
  concentration at 2688 h: 9.87 nM
  concentration at 3024 h: 10.5 nM
  concentration at 3360 h: 6.7 nM
400 mg/mL solution W (5.00% ethanol, 1.57% poloxamer 188), 4032 h, Mean n = 3
  concentration at 4032 h: 5.6 nM
400 mg/mL solution W (5.00% ethanol, 1.57% poloxamer 188), 4368 h, Mean n = 3
  concentration at 4368 h: 5.7 nM
[3]
  concentration at 1 h: 9.61 nM
  concentration at 3 h: 17.9 nM
  concentration at 8 h: 33.9 nM
  concentration at 24 h: 69.9 nM
  concentration at 48 h: 77.1 nM
  concentration at 72 h: 58.5 nM
  concentration at 96 h: 58.4 nM
  concentration at 168 h: 47.8 nM
  concentration at 336 h: 164 nM
  concentration at 504 h: 248 nM
  concentration at 672 h: 205 nM
  concentration at 840 h: 123 nM
  concentration at 1008 h: 95.8 nM
  concentration at 1334 h: 58.2 nM
  concentration at 1680 h: 28.4 nM
  concentration at 2016 h: 18.6 nM
  concentration at 2352 h: 15.4 nM
  concentration at 2688 h: 9.47 nM
  concentration at 3024 h: 6.15 nM
  concentration at 3360 h: 5.11 nM
  concentration at 3696 h: 3.76 nM
[4]
  concentration at 72 h: 73.6 nM
  concentration at 96 h: 73.8 nM
  concentration at 168 h: 41.2 nM
  concentration at 336 h: 163 nM
  concentration at 504 h: 247 nM
  concentration at 672 h: 229 nM
  concentration at 840 h: 136 nM
  concentration at 1008 h: 119 nM
  concentration at 1334 h: 70.5 nM
  concentration at 1680 h: 27.2 nM
  concentration at 2016 h: 17.7 nM
  concentration at 2352 h: 18.1 nM
  concentration at 2688 h: 8.23 nM
  concentration at 3024 h: 5.55 nM
400 mg/mL solution Z (3.13% poloxamer 188), Mean
  concentration at 1 h: 1.58 nM
[5]
  concentration at 1 h: 1.66 nM
  concentration at 72 h: 89.8 nM
  concentration at 504 h: 301 nM
  concentration at 672 h: 144 nM
  concentration at 840 h: 107 nM
  concentration at 1008 h: 93.3 nM
  concentration at 1334 h: 51.6 nM
  concentration at 3024 h: 3.65 nM
[6]
  concentration at 3 h: 5.83 nM
  concentration at 8 h: 34 nM
  concentration at 24 h: 80.5 nM
  concentration at 48 h: 61.6 nM
  concentration at 72 h: 65.1 nM
  concentration at 96 h: 70.6 nM
  concentration at 168 h: 60.6 nM
  concentration at 336 h: 172 nM
  concentration at 504 h: 228 nM
  concentration at 672 h: 117 nM
  concentration at 840 h: 95.7 nM
  concentration at 1008 h: 79.9 nM
  concentration at 1334 h: 50.2 nM
  concentration at 1680 h: 24.2 nM
  concentration at 2016 h: 15.2 nM
  concentration at 2352 h: 8.85 nM
  concentration at 2688 h: 6.06 nM
  concentration at 3024 h: 5.61 nM
  concentration at 3360 h: 3.41 nM
  concentration at 3696 h: 1.75 nM
[7]
  concentration at 1 h: 12.1 nM
  concentration at 3 h: 15.2 nM
  concentration at 8 h: 26.1 nM
[8]
  concentration at 3 h: 19.4 nM
  concentration at 8 h: 22.3 nM
